From PMC6010069, “The RFK catalytic cycle of the pathogen Streptococcus pneumoniae shows species-specific features in prokaryotic FMN synthesis” (Journal of Enzyme Inhibition and Medicinal Chemistry, 2018) come the findings set out here.

Where two headings read alike, the source gives them in different places.

The term Kd denotes the free concentration of one partner at which half of the binding sites on the other are occupied at equilibrium, for simple one-to-one binding. In general, Ki refers to a dissociation constant, usually derived from enzyme kinetics or from competition with a known ligand. One may read the Km as the concentration of substrate that gives half-maximal velocity. For orientation: kcat means the number of substrate molecules converted per active site and unit of time at saturation.

Data set [1] addresses T1, SpnFADS (Streptococcus pneumoniae, UniProt A0A0H2UPY5).
T1 construct: gene SP_1110; full-length bifunctional enzyme from pET-15b in E. coli BL21 Star (DE3), His6-tag removed; riboflavin kinase activity of the C-terminal module; functional form monomer
T1 sequence (A0A0H2UPY5 1-305): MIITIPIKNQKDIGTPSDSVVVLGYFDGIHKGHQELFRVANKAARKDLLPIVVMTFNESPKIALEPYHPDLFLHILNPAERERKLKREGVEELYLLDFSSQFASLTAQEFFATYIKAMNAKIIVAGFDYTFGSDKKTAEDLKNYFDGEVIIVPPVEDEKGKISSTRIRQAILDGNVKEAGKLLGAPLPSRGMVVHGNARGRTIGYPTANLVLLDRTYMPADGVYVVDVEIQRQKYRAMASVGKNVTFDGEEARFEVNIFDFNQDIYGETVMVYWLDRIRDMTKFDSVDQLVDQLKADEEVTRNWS
As to the kind of experiment: stopped-flow flavin fluorescence, Kd from koff and kon. Type of data set: binding. An excerpt: stopped-flow flavin fluorescence, Kd from koff and kon on SpnFADS

For data set [2], the target named is T1, SpnFADS. As to the kind of experiment: biochemical. Set-up: Isothermal titration calorimetry, ligand titrated into free or ligand-pre-bound SpnFADS, 20 °C, PIPES pH 7.0. As to the method: We performed isothermal titration calorimetry (ITC) assays to elucidate both the ligand binding order and the thermodynamic inhibition produced by the binding of the FLV and ANP ligands. Titrations were performed on an AutoITC200 (MicroCal, Malvern, UK) thermostated at 20 °C, as previously described. Approximately 25 µM SpnFADS contained in a 200 µL-cell was titrated with solutions of 180 µM RF, 250 µM FMN, or 350 µM ATP or ADP. Additionally, titrations with ANP ligands into mixtures that contain the protein pre-bound to FLV ligands were performed, as well as titrations with FLV ligands into pre-bound SpnFADS:ANP complexes. The titrations were conducted through 19 stepwise injections of 2 µL of the titrating ligand to the calorimetric cell, as previously described[21]^,[26]. Both the ligands and the protein were dissolved in 20 mM PIPES, pH 7.0, either in presence of 0.8 mM MgCl2 or in absence of this cation, and degassed before the titration. The enthalpy change (ΔH), the association constant (Ka), and the binding stoichiometry (N) were obtained through non-linear least squares regression of the data using a homemade fitting routine corresponding to a model for one or two independent binding sites, implemented in Origin 7.0 (OriginLab, Northampton, MA, USA), as previously described[21]^,[26]. The Gibbs free energy (ΔG), the entropic contribution (−TΔS), and the dissociation constant (Kd) were obtained using well-known thermodynamic equations. Cooperativity constants (α) between ANP and FLV ligands were obtained as previously described[23]^,[27]^,[28]. Particular titrations with ANP ligands into mixtures of the protein and 100 µM FLV were fit to a homemade fitting routine corresponding to a model that considers the influence of the FLV ligand in the protein binding affinity for the ANP ligand[27]^,[28]. Experiments were performed in triplicate. The errors considered in the measured parameters (±15% in Kd and Ka values, ±0.3 kcal mol^−1 in ΔG, ΔH, and −TΔS and ±20% in α) were assumed to be larger than the standard deviation between replicates and the numerical error after fitting analysis.

The target of data set [3] is T1, SpnFADS. Description: RFK activity, HPLC of flavins, global Lineweaver-Burk fit. It counts as biochemical. An excerpt: (§1) RFK activity, HPLC of flavins, global Lineweaver-Burk fit on SpnFADS
Substrate in data set [4]: Cc1cc2nc3c(=O)[nH]c(=O)nc-3n(C[C@H](O)[C@H](O)[C@H](O)CO)c2cc1C
Described as above. Type of data set: biochemical, Streptococcus pneumoniae. The following applies: co-substrate ATP, 20 mM PIPES pH 7.0, 0.8 mM MgCl2, 25 °C.
Source text: as §1

Substrate in data set [5]: Nc1ncnc2c1ncn2[C@@H]1O[C@H](COP(=O)(O)OP(=O)(O)OP(=O)(O)O)[C@@H](O)[C@H]1O
Described as above. It counts as biochemical, Streptococcus pneumoniae. As to conditions: co-substrate RF, 20 mM PIPES pH 7.0, 0.8 mM MgCl2, 25 °C.
Source text: as §1

Where [6] appears, read: enzyme pre-bound to ADP, 0.8 mM MgCl2.
The mark [7] stands for this setting: enzyme pre-bound to ADP, no MgCl2, read-out: Kd (μM), 0.0 mM MgCl2.

Consider `Cc1cc2nc3c(=O)[nH]c(=O)nc-3n(C[C@H](O)[C@H](O)[C@H](O)CO)c2cc1C` [RF, riboflavin], for which the dissociation constant (Kd) on SpnFADS [1] was 570 ± 140 nM; on SpnFADS [2] (setting [6]), 1.6 µM; on SpnFADS [2] (setting [7]), 0.3 µM; on SpnFADS [2] (enzyme pre-bound to ATP, no MgCl2, read-out: Kd (μM), 0.0 mM MgCl2), 2.5 µM.

For the molecule `Nc1ncnc2c1ncn2[C@@H]1O[C@H](COP(=O)(O)OP(=O)(O)O)[C@@H](O)[C@H]1O` [ADP, adenosine 5′-diphosphate], the inhibition constant Ki at SpnFADS [3] (read-out: Ki^ADP) amounted to 130000 ± 16000 nM.

Take `Cc1cc2nc3c(=O)[nH]c(=O)nc-3n(C[C@H](O)[C@H](O)[C@H](O)COP(=O)(O)O)c2cc1C` [FMN, flavin mononucleotide]: the dissociation constant Kd was 760 ± 240 nM on SpnFADS [1]; 2.3 µM at SpnFADS [2] (setting [6]); 7.9 µM on SpnFADS [2] (setting [7]); 1.6 µM at SpnFADS [2] (enzyme pre-bound to ATP, 0.8 mM MgCl2). Moreover, the inhibitory constant (Ki) at SpnFADS [3] (read-out: Ki^FMN) was determined as 1300 ± 400 nM.

B1: SpnFADS (Streptococcus pneumoniae TIGR4) (protein)
chain: T1 sequence (A0A0H2UPY5 1-305)
notes: full-length bifunctional enzyme from pET-15b in E. coli BL21 Star (DE3), His6-tag removed; riboflavin kinase activity of the C-terminal module; functional form monomer
As for B1, in data set [4], the Km was determined as 1.2 ± 0.3 µM and the catalytic constant (kcat) stood at 0.917 ± 0.033 s⁻¹. For the same molecule, in data set [5], the Km was 75 ± 7 µM and the kcat came to 0.917 ± 0.033 s⁻¹.
